The values below come from patent US20230072225A1, “CONTROLLED RELEASE COMPOSITION AND METHOD” (DUPONT NUTRITION USA, INC., priority 2014, published 2023).

A short description of this data set: Minimum film formation temperature (MFFT) of AquaCoat ECD-30 suspensions, MFFT-bar model 90. The class given is physicochemical. To be noted: added at 9% by weight based on ethylcellulose solids. As to the method: The MFFT of such suspensions was tested with MFFT-bar model 90. The MFFT bar was preset and the desired temperature range was selected depending on predicted MFFT value. Ranges 3 (5° C. to 18° C.), 4 (15° C.-33° C.) or range 5 (23° C. to 50° C.) were used in this study. The formulation was applied using a 400 micron cube applicator from warm side to cold side, and the MFFT value was read after the film was formed.
Such compounds were added at a rate of 9% by weight (based on weight of ethylcellulose solids). The compounds evaluated were PGDL (propylene glycol dilaurate; HLB 2)), GMC (glyceryl monocaprylate, HLB 8.3), GML (glyceryl monooleate, HLB 2.8) and TGDS (triglycerol diisosterarate HLB 10-13). […] Sticky residue was found in the formulation even after mixing for extended time. The film on the MFFT bar was not smooth or transparent.

`CCCCCCCCCCCC(=O)OCC(C)OC(=O)CCCCCCCCCCC` (stereo not drawn) [PGDL, propylene glycol dilaurate]: the “Effect on MFFT of the formulation” value is “didn't effectively decrease the MFFT”.

`CCCCCCCC(=O)OCC(O)CO` (stereo not drawn) [GMC, glyceryl monocaprylate]: the “Compatibility with the formulation” value is “didn't have good compatibility with the formulation”. In the case of triglycerol diisosterarate [TGDS], the “Compatibility with the formulation” value is recorded as “didn't have good compatibility with the formulation”.
